Data as given in PubChem BioAssay (NCI).
Several values for one entry are separate records, joined by “and”; a condition that tells them apart may be missing. Equal values may be shown once.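 Exposure lasted 48 hours, with cells grown in 96-well plates and compounds tested at five concentrations. GI50 = concentration required for 50% inhibition of growth. TGI is the concentration that stops growth completely.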

What was measured:
Assay in all cases: growth of human tumour cells (NCI), 48 h
786-0 renal = tested on: 786-0 renal
A549 NSCLC = tested on: A549 NSCLC
CAKI-1 renal = tested on: CAKI-1 renal
EKVX NSCLC = tested on: EKVX NSCLC
MDA-N = tested on: MDA-N
NCI-H226 lung = tested on: NCI-H226 lung
SF-268 CNS = tested on: SF-268 CNS
SK-MEL-28 melanoma = tested on: SK-MEL-28 melanoma
SNB-75 CNS = tested on: SNB-75 CNS
U251 CNS = tested on: U251 CNS

Structure (SMILES)	TGI (786-0 renal)	TGI (A549 NSCLC)	TGI (CAKI-1 renal) [µM]	TGI (EKVX NSCLC)	TGI (MDA-N) [µM]	TGI (NCI-H226 lung) [µM]	TGI (SF-268 CNS)	TGI (SK-MEL-28 melanoma)	TGI (SNB-75 CNS) [µM]	TGI (U251 CNS)	GI50 (NCI-H226 lung) [µM]
N#CC(NNC(=O)c1ccccc1O)c1c(O)ccc2ccccc12 (stereo not given)	58.8 µM	26.8 µM	21	51.7 µM	> 63.2	13.4	64.9 µM	> 100 µM	48.3	37.1 µM	
NC(N)=NCCCC(NC(=O)c1c2ccccc2nc2ccccc12)C(=O)O (stereo not given)	> 100 µM	> 100 µM	> 100	> 100 µM	> 100	> 100	> 100 µM	> 100 µM	> 100	> 100 µM	
CC(=O)O[C@H]1C(=O)[C@@]2(C)[C@H]([C@H](OC(=O)c3ccco3)[C@]3(O)C[C@H](OC(=O)[C@H](O)[C@@H](NC(=O)c4ccccc4)c4ccccc4)C(C)=C1C3(C)C)[C@]1(OC(C)=O)CO[C@@H]1C[C@@H]2O	> 25 µM	> 25 µM	> 25	> 25 µM	0.0602	> 5.05	> 25 µM	> 25 µM	3.87	> 25 µM	
O=C1c2ccccc2C(=O)c2sc(Nc3cc(Cl)ccc3Cl)nc21	22.6 µM	42.2 µM	11.7	26.7 µM	3.41	44.7	21 µM	27.3 µM	38.2	33.5 µM	
Cc1ccc(-n2cc(-c3ccc(Cl)cc3)c3c(=N)n(N)cnc32)cc1	24.4 µM	29 µM	34.3	29.9 µM	23.8	38.2	25.7 µM	26.7 µM	25.9	22.3 µM	
CC(C)=CCc1c2c(c(O)c3c(=O)c4c(oc13)-c1ccc(O)cc1OC4C=C(C)C)C=CC(C)(C)O2 (stereo not given)	23.9 µM	24.6 µM	34.4	30.3 µM	27.1	40.6	29.8 µM	29.2 µM	25.3	25.3 µM	
CCC(=C/[C@H](C)C/C=C/C(C)=C/[C@@H](C)C(=O)[C@@H](C)[C@H](O)[C@@H](C)CC)/C=C/[C@H]1CC=CC(=O)O1	1.26 µM and 10.8 µM	6.32 µM and 13.5 µM	2.88	12 µM and 14.3 µM	0.00339		2.79 µM and 12.2 µM	2.81 µM and 15.1 µM	< 0.0012	1.4 µM and 11.6 µM	< 0.0012
COC1OC(C(=O)O)C2OC(C)(C)OC12 (stereo not given)	> 100 µM	> 100 µM	> 100	> 100 µM	> 100	> 100	> 100 µM	> 100 µM	> 100	> 100 µM	
CC(NNC(=O)c1ccncc1)c1ccc(Cl)cc1Cl (stereo not given)	> 100 µM	> 100 µM	> 100	> 100 µM	> 100	> 100	> 100 µM	> 100 µM	> 100	> 100 µM	
